In US7423177B2, “Carboxamide derivatives as therapeutic agents” (TransTech Pharma, Inc., priority 2001, dated 2008):

What was measured:
[1] = molecular target: T1, RAGE (sRAGE) binding to S100b (Homo sapiens, UniProt Q15109); test: ELISA assay: inhibition of sRAGE binding to plate-bound S100b; details: ligand S100b coated on plate, concentration at which 50% signal has been inhibited, read-out: ELISA Assay IC50 (μM) S-100b
T1 construct: extracellular domain can be isolated by proteolysis of RAGE to generate soluble RAGE (sRAGE) comprised of the V and C domains
Protocol: (§1) This method is also described and claimed in co-pending U.S. Ser. No. 09/799,152 filed Mar. 5, 2001.
(§2) S100b, β-amyloid and CML (500 ng/100 μL/well) in 100 mM sodium bicarbonate/sodium carbonate buffer (pH 9.8) is loaded onto the wells of a NUNC Maxisorp flat bottom 96 -well microtitre plate. The plate is incubated at 4° C. overnight. The wells are aspirated and treated with 50 mM imidazole buffer saline (pH 7.2) (with 1 mM CaCl2/MgCl2) containing 1% bovine serum albumin (BSA) (300 μL/well) for two h at 37° C.
(§3) Test compounds are dissolved in nanopure water (concentration: 10-100 μM). DMSO may be used as co-solvent. 25 μL of test compound solution in 2% DMSO is added, along with 75 μL SRAGE (4.0×10^−4 mg/mL FAC) to each well and samples are incubated for 1 h at 37° C. The wells are washed 3 times with 155 mM NaCl pH 7.2 buffer saline and are soaked 10 seconds between each wash.
(§4) Non-Radioactive Binding is Performed by Adding:
(§5) 10 μL Biotinylated goat F(ab′)2 Anti-mouse IgG. (8.0×10^−4 mg/mL, FAC)
(§6) 10 μL Alk-phos-Sterptavidin (3×10^−3 mg/mL FAC)
(§7) 10 μL Polyclonal antibody for sRAGE (FAC 6.0×10^−3 mg/mL)
(§8) to 5 mL 50 mM imidazole buffer saline (pH 7.2) containing 0.2% bovine serum albumin and 1 mM […]. The mixture is incubated for 30 minutes at 37° C. 100 μL complex is added to each well and incubation is allowed to proceed at rt for 1 h. Wells are washed 3 times with wash buffer and soaked 10 s between each wash. 100 μL 1 mg/mL (pNPP) in 1 M diethanolamine (pH adjusted to 9.8 with HCl) is added. Color is allowed to develop in the dark for 1 to 2 h at rt. The reaction is quenched with 10 μL of stop solution (0.5 N NaOH in 50% ethanol) and the absorbance is measured spectrophotometrically with a microplate reader at 405 nm.

[2] = molecular target: T2, RAGE (sRAGE) binding to β-amyloid (Homo sapiens, UniProt Q15109); test: ELISA assay: inhibition of sRAGE binding to plate-bound β-amyloid; details: ligand β-amyloid coated on plate, concentration at which 50% signal has been inhibited
T2 construct: extracellular domain can be isolated by proteolysis of RAGE to generate soluble RAGE (sRAGE) comprised of the V and C domains
Protocol: as §1, §2, §3, §4, §5, §6, §7, §8

[3] = molecular target: T3, RAGE (sRAGE) binding to Carboxymethyl Lysine (CML) (Homo sapiens, UniProt Q15109); test: ELISA assay: inhibition of sRAGE binding to plate-bound CML; details: ligand CML coated on plate, concentration at which 50% signal has been inhibited
T3 construct: extracellular domain can be isolated by proteolysis of RAGE to generate soluble RAGE (sRAGE) comprised of the V and C domains
Protocol: as §1, §2, §3, §4, §5, §6, §7, §8

T1 sequence (Q15109 23-342 limits assumed): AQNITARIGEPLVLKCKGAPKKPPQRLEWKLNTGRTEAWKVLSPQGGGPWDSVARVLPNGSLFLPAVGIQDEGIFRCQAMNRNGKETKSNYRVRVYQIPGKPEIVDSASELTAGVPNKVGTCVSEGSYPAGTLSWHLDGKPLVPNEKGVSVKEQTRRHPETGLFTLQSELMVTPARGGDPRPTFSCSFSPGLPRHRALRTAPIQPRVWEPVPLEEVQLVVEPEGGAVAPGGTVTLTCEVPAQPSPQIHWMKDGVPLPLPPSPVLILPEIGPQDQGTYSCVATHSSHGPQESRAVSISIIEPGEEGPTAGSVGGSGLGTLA
T3 sequence (Q15109 23-342 limits assumed): as above
T2 sequence (Q15109 23-342 limits assumed): as above

In the case of `CCN(CC)CCCOc1ccc(N(Cc2ccccc2)C(=O)[C@@H](Cc2ccc(OCc3ccccc3)cc2)NC(=O)OC(C)(C)C)cc1` [Example 13, (2R)-2-tert-butoxycarbonylamino-3-[4-(benzyloxy)phenyl]propionic Acid 4-(3-diethylaminopropoxy)-N-benzylaniline Amide], the IC50 [1] is reported as 5 to 10 µM, the IC50 [2] is reported as 5 to 10 µM and the IC50 [3] is reported as 5 to 10 µM.
Work on `CCCCOc1cc(OCCCN(CC)CC)ccc1NC(=O)C(CC1CCN(C(=O)OCc2ccccc2)CC1)NC(=O)OCC1c2ccccc2-c2ccccc21` (stereo not drawn) [Example 26, 3-(1 -Benzyloxycarbonylpiperidin-4-yl)-2-(9-fluorenylmethoxycarbonyamino)propionic Acid 4-Diethylaminopropoxy-2-butoxyaniline Amide] yielded an IC50 [1] of 1 to 5 µM, an IC50 [2] of 1 to 5 µM and an IC50 [3] of 0.5 to 1 µM.
In the case of `CCCCOc1cc(C(=O)OCCN(CC)CC)ccc1NC(=O)[C@@H](Cc1ccc(OCc2ccccc2)cc1)n1ccnc1` [Example 7, (R)-3-(4-Benzyloxyphenyl)-2-(1-imidazolyl)propionic Acid 4-Diethylaminoethoxycarbonyl-2-butoxyaniline Amide], the IC50 [1] is reported as 0.5 to 1 µM, the IC50 [2] is reported as 1 to 5 µM and the IC50 [3] is reported as 1 to 5 µM.
In the case of `CCCCN(C(=O)[C@@H](Cc1ccc(OCc2ccccc2)cc1)NC(=O)OC(C)(C)C)c1ccc(OCCCN(CC)CC)cc1` [Example 18, (2R)-2-tert-butoxycarbonylamino-3-[4-(benzyloxy)phenyl]propionic Acid 4-(3-diethylaminopropoxy)-N-butylaniline Amide], the IC50 [1] is reported as 1 to 5 µM, the IC50 [2] is reported as 1 to 5 µM and the IC50 [3] is reported as 1 to 5 µM.
For `CCN(CC)CCCOc1ccc(NC(=O)CC(NC(C)C)c2cccc(OC(C)(C)C)c2)c(OCCCN(CC)CC)c1` (stereo not drawn) [Example 12, 3-Isopropylamino-3-(3-tert-butoxyphenyl)propionic Acid 2,4-Di-(3-diethylaminopropoxy)aniline Amide], the IC50 [1] was 1 to 5 µM, the IC50 [2] was 1 to 5 µM and the IC50 [3] was 0.5 to 1 µM.
With `CCN(CC)CCCOc1ccc(NC(=O)CC(N)c2cccc(OC(C)(C)C)c2)c(OCCCN(CC)CC)c1` (stereo not drawn) [Example 3, 3-(3-Tert-butoxyphenyl)-3-aminopropionic Acid 2,4-Di-(3-diethylaminopropoxy)aniline Amide] the IC50 [1] was 1 to 5 µM, the IC50 [2] was 1 to 5 µM and the IC50 [3] was 1 to 5 µM.
Compound `CCN(CC)CCCOc1ccc(NC(=O)CC(N)c2ccccc2OC(C)(C)C)c(OCCCN(CC)CC)c1` (stereo not drawn) [Example 11, 3-amino-3-(2-tert-butoxyphenyl)propionic Acid 2,4-Di-(3-diethylaminopropoxy)aniline Amide] has an IC50 [1] of 1 to 5 µM, an IC50 [2] of 1 to 5 µM and an IC50 [3] of 1 to 5 µM.
